# Laboratory results from patent publication US5589489A, “Cyclic amide derivatives for treating asthma” (Zeneca Limited, priority 1993, dated 1996).
# Where a name gives a salt, the structure may show the parent alone.
# Biological target: T1, guinea pig trachea (Cavia porcellus, UniProt Q64077)
# T1 construct: functional assay in guinea pig trachea; from tissue; host or cells: guinea pig trachea (male animals), tracheal rings
# T1 sequence (Q64077 1-402): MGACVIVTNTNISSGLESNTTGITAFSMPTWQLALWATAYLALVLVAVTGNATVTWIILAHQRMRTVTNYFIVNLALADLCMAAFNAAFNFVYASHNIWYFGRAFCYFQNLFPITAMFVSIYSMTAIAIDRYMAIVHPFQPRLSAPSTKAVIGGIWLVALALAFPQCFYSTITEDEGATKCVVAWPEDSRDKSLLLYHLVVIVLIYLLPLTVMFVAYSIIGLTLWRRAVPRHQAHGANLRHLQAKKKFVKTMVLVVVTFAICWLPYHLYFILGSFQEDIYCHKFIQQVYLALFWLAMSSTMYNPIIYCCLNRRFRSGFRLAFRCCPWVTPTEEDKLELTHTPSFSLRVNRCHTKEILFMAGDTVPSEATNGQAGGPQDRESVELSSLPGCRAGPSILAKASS
# Assay: Guinea Pig Assay (Test B), functional antagonism of NKA or [β-ala8]-NKA(4-10) in guinea pig trachea
# Assay type: cell-based
# Conditions: read-out: pKB (-log molar KB, apparent dissociation constant) (converted)
# Experimental: The chosen agonist is refered to as AG throughout the description.
# Male guinea pigs are killed by a sharp blow to the back of the head. The trachea are removed, trimmed of excess tissue and divided into two segments. Each segment is suspended as a ring between stainless steel stirrups in water-jacketed (37.5° C.) tissue baths containing a physiological salt solution of the following composition (mM): NaCl, 119; KCl 4.6; CaCl2, 1.8; MgCl2, 0.5; NaH2 PO4, 1; NaHCO3, 25; glucose, 11; thiorphan, 0.001; and indomethacin, 0.005; gassed continuously with 95% O2 -%5 CO2. […] Contractile responses are measured on a Grass polygraph via Grass FT-03 force transducers.
# Tissues are challenged repetitively with a single concentration of AG (10 nM) with intervening 30 min periods with washing to allow the tension to return to baseline levels. […] Percent inhibition is determined when a Compound produces a statistically significant (p<0.05) reduction of the contraction and is calculated using the second contractile response as 100%.
# Potencies of selected Compounds are evaluated by calculating apparent dissociation constants (KB) for each concentration tested using the standard equation: […]
# where dose ratio=antilog[(AG -log molar EC50 without Compound)-(AG -log molar EC50 with Compound)]. The KB values may be converted to the negative logarithms and expressed as -log molar KB (i.e. pKB). […]
smiles,measurement,value
"CN1C(=O)c2ccccc2[C@H]1[C@@H](CCN1CCC(O)(c2ccccc2)CC1)c1ccc(Cl)c(Cl)c1 (single isomer, unassigned) [Example 4, (-)-(3R/3S)-3-[(1S/1R)-1-(3,4-dichlorophenyl)-3-(4-hydroxy-4-phenylpiperidino)propyl]-2-methyl-2,3-dihydroisoindol-1-one hydrochloride]",Kb,20 nM
